Series [1] is described as follows: UV-vis absorption and emission measurements in aqueous buffer. Type of series: physicochemical. As to the method: UV-vis absorption and emission measurements. FCP-1 stock solution in DMSO (5 mM) was prepared, aliquoted and stored at […]. For each spectroscopic measurement, a fresh aliquot was diluted to 500 μM by DMSO and further diluted with PBS containing 2 mM GSH/PEG-400 mixture (3:2, v/v) to prepare the sensing solution with 5 μM of FCP-1. The sensing solution was pre-incubated in a water bath at 37° C., and then [Cu(CH3CN)](PF6) in MeCN or other metal ions in H2O was added. The solution mixture was kept at 37° C. and taken out for UV-vis absorption or emission spectroscopic measurements in quartz cuvette at predetermined time intervals. Emission spectra were corrected using coumarin 153 as secondary emission standard (4). Photoluminescence quantum yield (PLQY) was determined using fluorescein in 0.1 M NaOH solution (0.95; λex=496 nm). FRET efficiency from the fluorescein moiety to rhodamine moiety of FCP-1 was estimated by [1−(PLQY of FCP-1/PLQY of FL-TPA)].
FCP-1 in PBS buffer containing glutathione (2 mM) and PEG-400 (40%, v/v) was evaluated. […] The first two absorption maxima corresponded to the absorption of the fluorescein moiety, as similar absorption maxima at 460 and 489 nm were found in the absorption spectra of FL-TPA (FIG. 4), whereas the lowest energy absorption at 552 nm originated from the rhodamine moiety (FIG. 4). […] Together with the significant contribution of the lower-energy fluorescence from the excitation at 450-500 nm, which is in the region of FL-TPA absorption (FIG. 6), the data support the occurrence of FRET from the fluorescein donor to the rhodamine acceptor. Using FL-TPA as a reference FRET donor compound (FIG. 7) with assumption that quenching of donor fluorescence originated only from the FRET process, the FRET efficiency in the FCP-1 cassette is estimated to be 84%.

Series [2] relates to labile Cu(I) pools in HEK 293T cells. In words: Ratiometric confocal fluorescence imaging of labile Cu(I) in HEK 293T cells. Format: cell-based, Human. As to conditions: CuCl2 25 μM, FL-TPA 5 μM, λex 488 nm (FIG. 15). Here is the method: (A) Confocal fluorescence microscopy images of HEK 293T cells pretreated with solvent vehicle control or varying concentrations of CuCl2 in complete medium for 18 h. The cells were then washed with PBS, incubated with FCP-1 (5 μM) in DPBS for 45 min and then imaged. (B) Average cellular ratiometric emission ratios, represented by Fgreen/Forange, as determined from imaging experiments in (A) performed in triplicate. (C) Confocal fluorescence microscopy images of HEK 293T cells pretreated with solvent vehicle control or BCS (100 μM) in complete medium for 18 h. The cells were then washed with PBS, incubated with FCP-1 (5 μM) in DPBS for 45 min and then imaged. (D) Average cellular ratiometric emission ratios of FCP-1, Fgreen/Forange, as determined from experiments in (C) performed in triplicate. […] (E) ICP-MS measurement to determine total cellular ^63Cu levels in HEK293T cells under copper supplementation and depletion relative to the control (with normalization of different cell numbers by total cellular ^31P level). Error bars denote standard derivation (SD; n=3). *p<0.05, **p<0.01, ***p<0.001, ****p<0.0001 and *****p<0.00001.
Cell culture. Following cell cultures were grown: Human embryonic kidney (HEK 293T) cells were maintained in Dulbecco's Modified Eagle Medium (DMEM) supplemented with 10 vol % fetal bovine serum (FBS), 1 vol % GlutaMax (Gibco) and 1 vol % non-essential amino acids (NEAA, Gibco). Ctrl1^+/+ and Ctr1^−/− MEF cells were maintained in DMEM with 10 vol % FBS, 1 vol % non-essential amino acids, 1 vol % sodium pyruvate and 0.1 vol % 2-mercaptoethanol or DMEM supplemented with 10 vol % FBS and 1× Penicillin-Streptomycin. Human cervical epithelial carcinoma (HeLa) was maintained in DMEM medium supplemented with 1 vol % GlutaMAX and 10 vol % FBS. […]
Confocal fluorescence microscopy imaging. For confocal fluorescence imaging experiments of HEK293T, MEF Ctr1^+/+ and Ctr1^−/− and HeLa cells, the cells were plated on 8-well Lab Tek borosilicate chambered coverglass slides (Nunc), and allowed to grow to ca. 60% confluency before performing the cell imaging experiments. […] For quantification, a threshold value was set as background and the average intensity of the whole image was measured by ImageJ. […]
Given the metal and oxidation state-selective and sensitive response of FCP-1 to Cu(I), this probe was examined for ratiometric fluorescence imaging of labile Cu(I) pools in living cells. […] The observed increases and decreases in labile Cu(I) levels upon copper supplementation (CuCl2) and copper depletion (BCS) treatments, respectively, as measured by FCP-1 imaging were supported by complementary ICP-MS measurements of total copper levels showing expected increases and decreases in the total copper pool (FIG. 9, panel C).

In series [3] the test system is labile Cu(I) in Ctr1^+/+ MEFs. In words: Confocal fluorescence imaging of labile Cu(I) in Ctr1+/+ MEFs. Type of series: cell-based, mouse. Conditions: FL-TPA 5 μM, 45 min, λex 488 nm. As to the method:
(A) Confocal fluorescence microscopy images of Ctr1^+/+ MEFs and Ctr1^−/− MEFs treated with solvent control, CuCl2 (100 or 300 μM) or BCS (500 μM) in complete medium for 8 h, washed with complete medium and PBS, incubated with FCP-1 (5 μM) in DPBS for 45 min, and then imaged with λex=458 nm. (B) Average cellular ratiometric emission ratios of FCP-1, Fgreen/Forange, as determined from experiments performed in triplicate. (C) Total cellular ^63Cu levels were determined by ICP-MS experiments (with normalization of different cell numbers by total cellular ^31P level). (D) Confocal fluorescence microscopy images of Ctr1^+/+ MEFs and Ctr1^−/− MEFs incubated with FL-TPA (5 μM) in DPBS for 45 min. The cells were then imaged with λex=488 nm. (E) Average cellular fluorescence intensity of FL-TPA, FFL-TPA, determined from experiments performed in triplicate with λex=488 nm. Error bars denote SD (n=3). *p<0.05, **p<0.01 and ***p<0.001.
Cell culture. Following cell cultures were grown: Human embryonic kidney (HEK 293T) cells were maintained in Dulbecco's Modified Eagle Medium (DMEM) supplemented with 10 vol % fetal bovine serum (FBS), 1 vol % GlutaMax (Gibco) and 1 vol % non-essential amino acids (NEAA, Gibco). Ctrl1^+/+ and Ctr1^−/− MEF cells were maintained in DMEM with 10 vol % FBS, 1 vol % non-essential amino acids, 1 vol % sodium pyruvate and 0.1 vol % 2-mercaptoethanol or DMEM supplemented with 10 vol % FBS and 1× Penicillin-Streptomycin. Human cervical epithelial carcinoma (HeLa) was maintained in DMEM medium supplemented with 1 vol % GlutaMAX and 10 vol % FBS. All cells were incubated in 5% CO2 humidified air and subcultured at 80% confluence.
Confocal fluorescence microscopy imaging. For confocal fluorescence imaging experiments of HEK293T, MEF Ctr1^+/+ and Ctr1^−/− and HeLa cells, the cells were plated on 8-well Lab Tek borosilicate chambered coverglass slides (Nunc), and allowed to grow to ca. 60% confluency before performing the cell imaging experiments. The confocal imaging was performed with a Zeiss laser scanning microscope 710 with 20× or 63× oil-immersion objective lens using Zen 2009 software (Carl Zeiss). FCP-1 was excited with 458 nm with an Ar laser, and the emissions were collected using a META detector between 465 and 541 nm (Fgreen), and between 559 and 710 nm (Forange). DRAQ-5 was excited with a 633 nm He Ne laser, and its emission was collected using a META detector between 661 and 759 nm. Image analysis was performed using ImageJ, with ratiometric images generated by the Ratio Plus plugin of ImageJ. For quantification, a threshold value was set as background and the average intensity of the whole image was measured by ImageJ. All experiments were performed in triplicate, and statistical analyses were performed with a two-tailed Student's t-test (MS excel).
Having established that FCP-1 is sensitive to endogenous pools of labile Cu(I) under basal conditions and can respond to changes in labile Cu(I) pools upon pharmacological copper supplementation and/or depletion, the application of FCP-1 to visualize alterations in endogenous labile Cu(I) pools through genetic manipulation was explored. To this end, comparative FCP-1 imaging was performed in mouse embryonic fibroblast cells that are either Cu-replete (Ctr1^+/+ MEFs) or Cu-deficient (Ctr1^−/− MEFs) through knockout of the high-affinity copper transporter CTR1 (64-66).
Complementary ICP-MS measurements confirm that total copper levels in Ctr1^−/− MEFs are lower than Ctr1^+/+ MEFs (FIG. 12C). […]

Values joined by “and” are separate entries in the source; they are usually repeats but may differ in a detail not shown here. Equal values may be shown once.

Take `COC(=O)c1ccccc1-c1c2ccc(=O)cc-2oc2cc(OCc3cccc(CN(Cc4ccccn4)Cc4ccccn4)n3)ccc12` [FL-TPA]: the absorption maxima in series [1] (PBS buffer containing glutathione (2 mM) and PEG-400 (40%, v/v)) was 460 nm and 489 nm. For the same compound, the “detection of changes in labile copper with exogenous copper addition” value in series [2] was “able to detect changes in labile copper”. The “ability to distinguish basal labile Cu(I) levels in Ctr1+/+ and Ctr1−/− MEFs” value in series [3] is “unable to distinguish differences”.

With “N-[9-(2-carboxyphenyl)-6-(1-piperazinyl)-3H-xanthen-3-ylidene]-N-ethyl-ethanaminium [Pz-rhodamine, reference compound]”, the “absorption at 458 nm” value in series [1] (5 μM in PBS, 2 mM GSH, 40 vol % PEG-400) is recorded as “weak absorption”.

The record behind these values is patent publication US12241902B2, “Probes for detection of copper” (The Regents of the University of California, priority 2019, dated 2025).
